Data taken from patent US7939536B2, “Pyrimidinylisoxazole derivatives” (Aska Pharmaceutical Co., Ltd., priority 2004, dated 2011).

Experiment: Measurement of the compounds' metabolic rate (human liver S9)
Assay type: in vitro ADME
Settings: human liver S9 0.5 mg protein/mL, NADPH generating system, 1 μmol/L test compound, 37° C. for 5 minutes, LC/MS/MS
Procedure: (2) Measurement of the Compounds' Metabolic Rate:
Each test compound was added to potassium phosphate buffer (50 mmol/L, pH7.4) containing NADPH generating system (comprising 3.3 mmol/L MgCl2, 3.3 mmol/L glucose 6-phosphate, 1.3 mmol/L β-NADP^+ and 0.4 unit/mL glucose 6-phosphate dehydrogenase) (in which occasion the final concentration was rendered 1 μmol/L) and incubated at 37° C. for 2 minutes. After the incubation, a suspension of human liver S9(the supernatant fraction obtained by centrifuging comminuted human liver cell fluid at 9000×g) in potassium phosphate buffer was added to the system, to the final concentration of 0.5 mg protein/mL. This reaction mixture was incubated at 37° C. for 5 minutes, and to which 4 volume times the reaction mixture of acetonitrile was added, mixed, cooled with ice and centrifuged (2000×g, 10 minutes). A part of the supernatant was taken and analyzed by LC/MS/MS, to determine the remaining rate of unchanged substance in the reaction mixture. The results are shown in the following Table A, concurrently with the measured results of TNF-α production inhibition action in (1) above.

Row | Metabolic rate (remaining rate of unchanged substance: %) [%] | Compound
1 | 39.8 | Cc1ccc(F)c(-c2noc(NC(=O)Cc3ccccc3)c2-c2ccncn2)c1 [Example 224, 3-(2-Fluoro-5-methylphenyl)-5-(phenylacetylamino)-4-(4-pyrimidinyl)isoxazole]
2 | 24.1 | COc1ccc(-c2noc(NC(=O)Cc3ccccc3Cl)c2-c2ccncn2)c(F)c1 [Example 174, 5-[(2-Chlorophenyl)acetylamino]-3-(2-fluoro-4-methoxyphenyl)-4-(4-pyrimidinyl)isoxazole]
3 | 21.2 | Cc1cccc(-c2noc(NC(=O)Cc3ccccc3Cl)c2-c2ccncn2)c1 [Example 201, 5-[(2-Chlorophenyl)acetylamino]-3-(3-methylphenyl)-4-(4-pyrimidinyl)isoxazole]
4 | 20.4 | O=C(Cc1ccccc1Cl)Nc1onc(-c2ccc(F)cc2F)c1-c1ccncn1 [Example 105, 5-[(2-Chlorophenyl)acetylamino]-3-(2,4-difluorophenyl)-4-(4-pyrimidinyl)isoxazole]
5 | 38.5 | Cc1cccc(CC(=O)Nc2onc(-c3cccc(C)c3)c2-c2ccncn2)c1 [Example 215, 3-(3-Methylphenyl)-5-[(3-methylphenyl)acetylamino]-4-(4-pyrimidinyl)isoxazole]
6 | 52.6 | Cc1cc(-c2noc(NC(=O)Cc3ccccc3C)c2-c2ccncn2)ccc1F [Example 257, 3-(3-Methyl-4-fluorophenyl)-5-[(2-methylphenyl)acetylamino]-4-(4-pyrimidinyl)isoxazole]
7 | 16.1 | O=C(Cc1c(F)cccc1Cl)Nc1onc(-c2ccc(F)cc2)c1-c1ccncn1 [Example 13, 5-[(2-Chloro-6-fluorophenyl)acetylamino]-3-(4-fluorophenyl)-4-(4-pyrimidinyl)isoxazole]
8 | 59.9 | Cc1cccc(-c2noc(NC(=O)Cc3ccccc3C)c2-c2ccncn2)c1 [Example 214, 3-(3-Methylphenyl)-5-[(2-methylphenyl)acetylamino]-4-(4-pyrimidinyl)isoxazole]
9 | 5.8 | O=C(Cc1ccccc1Cl)Nc1onc(-c2ccc(F)cc2)c1-c1ccncn1 [Example 5, 5-[(2-chlorophenyl)acetylamino]-3-(4-fluorophenyl)-4-(4-pyrimidinyl)isoxazole]
10 | 33.1 | COc1cccc(CC(=O)Nc2onc(-c3ccc(F)c(C)c3)c2-c2ccncn2)c1 [Example 253, 5-[(3-Methoxyphenyl)acetylamino]-3-(3-methyl-4-fluorophenyl)-4-(4-pyrimidinyl)isoxazole]
11 | 43.6 | Cc1cccc(-c2noc(NC(=O)Cc3ccccc3Br)c2-c2ccncn2)c1 [Example 202, 5-[(2-Bromophenyl)acetylamino]-3-(3-methylphenyl)-4-(4-pyrimidinyl)isoxazole]
12 | 46.6 | Cc1cccc(CC(=O)Nc2onc(-c3ccc(F)cc3F)c2-c2ccncn2)c1 [Example 121, 3-(2,4-Difluorophenyl)-5-[(3-methylphenyl)acetylamino]-4-(4-pyrimidinyl)isoxazole]
13 | 53.1 | O=C(Cc1ccccc1Cl)Nc1onc(-c2ccc(Cl)cc2)c1-c1ccncn1 [Example 61, 3-(4-Chlorophenyl)-5-[(2-chlorophenyl)acetylamino]-4-(4-pyrimidinyl)-isoxazole]
